What was measured:
[1] = test system: HeLa cervical adenocarcinoma cells; test: Time-lapse microscopy count of multi-daughter divisions (DNV frequency), HeLa; format: cell-based, human; details: wogonin 50 μM, 5-FU 20 μM
Procedure: (§1) To investigate DNVs, the human HepG2 hepatocellular carcinoma, HeLa cervical adenocarcinoma, and A549 lung adenocarcinoma cell lines, as well as the non-cancerous RPE1 line of hTRET-immortalized retina epithelial cells, were obtained from the American Type Culture Collection (ATCC, Manassas, Va., USA) and cultivated in Dulbecco's Modified Eagle Medium (DMEM) supplemented with 10% fetal bovine serum (Gemini Bio-Products, Sacramento. Calif.) under a humidified atmosphere of 5% C02 at 37° C. After 24 hours, the old medium was replaced by acidic DMEM growth medium buffered by 15 mM 2-(N-morpholino)-ethanesulfonic acid.HCl (MES) at pH 6.4, neutral DMEM growth medium buffered by 15 mM 3-(N-morpholino)propanesulfonic acid.HCl (MOPS) at pH 7.4, alkaline growth medium buffered by 15 mM tris(hydroxymethyl)aminomethane.HCl (Tris) at pH 8.4, or neutral DMEM growth medium containing wogonin (50 μM) or 5-FU (20 μM). Using phase contrast microscopy, time-lapse photographs were recorded at different positions of the wells at 15-minute intervals for 24 hours using the Nikon ECLIPSE Ti Live Cell Imaging Observatory, enabling the count of P1 through P8 patterns at the end of Stage 2 of the DNV process (FIG. 1). All the images were photographed at 100× magnification. Altemately, using fluorescence microscopy, the cells were seeded into 12 well plates at 1×10^3 per well and stained with Hoechst 33342 ([…], Thermofisher) for 30 minutes in an incubator at 37° C. After 30 minutes, culture medium was replaced by various treatment media and placed under the Nikon ECLIPSE Ti Live Cell Imaging Observatory for 24 hours. For the HeLa, HepG2 and A549 cells, the various treatments were also extended to 5 days. Because the RPE1 cells yielded no DNVs after 24 hours of drug treatment, its treatment periods were not extended beyond 24 hours. All the cells were manually traced and quantified using the ImageJ software. DNV frequencies were estimated by dividing the total number of multi-daughter ([…]) divisions by the total number of cell divisions. Fluorescence staining and time-lapse microscopy were employed to differentiate between the bi-, tri-, tetra- and penta-daughter cell divisions, and to estimate the percentages of the P1 through P8 patterns in the final daughter cells generated by each of the DNV events. GraphPad Prism 5.0 software was employed for statistical analysis, and the results were presented as the mean. Significance was determined using the Student t-test (two-tailed, unpaired/unequal variances).

[2] = test system: non-cancerous RPE1 retina epithelial cells; test: Time-lapse microscopy count of multi-daughter divisions (DNV frequency), RPE1; format: cell-based; details: RPE1, 24 hours; wogonin 50 μM, 5-FU 20 μM
Procedure: as §1

[3] = test system: HeLa cells; test: Daughter-cell subgroups P1 through P8 in mitoses with DNV, HeLa; format: cell-based, human; details: 24 hours, wogonin 50 μM, 5-FU 20 μM
From the text: “Daughter Number Variation” is a process that occurs during mitosis, where more than two daughter cells are produced per mitotic division. It is a two-stage process, wherein cell divisions of mono-nucleate, bi-nucleate, tri-nucleate and tetra-nucleate mother cells at Stage 1 produce subgroups of single mono-nucleate cells (herein referred to as P1), and subgroups containing one bi-nucleate cell and two mono-nucleate cells (herein referred to as P2). Stage 1 is followed by Stage 2, during which time some of the daughter cells from Stage 1 fuse to produce multi-nucleate cell subgroups, where the different subgroups differ with respect to the number of constituent cells and their nucleate status (herein referred to as P3 through P8). All the subgroups from a single DNV mitosis stay close to one another to form a distinct cluster when the cell culture is not overly dense with cells.
P1 subgroup cells are daughter mono-nucleate cells resulting from mitoses with DNV that have not undergone any post-mitotic cell fusion. P2 subgroup daughter cells are clusters of one bi-nucleate cell and two mono-nucleate cells, which also have not undergone any post-mitotic cell fusion during DNV, whereas each of the multi-nucleated subgroups contains at least one cell that is generated from post-mitotic fusions between the Stage 1 cells. P3 through P8 are daughter cell subgroups, which result from cell fusions during DNV, and wherein each subgroup includes at least one multinucleate cell.
By way of example and not of limitation, there is at least one multinucleate cell with two nuclei in P3 and P5, one multinucleate cell with three nuclei in P4 and P6, one multinucleate cell with four nuclei in P7, and one multinucleate cell with five nuclei in P8, sharing the same cytoplasm. More specifically, P3 cell subgroups are clusters of one multinucleate cell with two nuclei and one mononucleate cell, P4 cell subgroups are one multinucleate cell with three nuclei, P5 cell subgroups are clusters of either two multinucleate cells with two nuclei or one multinucleate cell with two nuclei and one binucleate cell, P6 cell subgroups are clusters of one multinucleate cell with three nuclei and one mononucleate cell, P7 cell subgroups are one multinucleate cell with four nuclei, and P8 cell subgroups are one multinucleate cell with five nuclei. P1 through P8 cell subgroups are depicted in detail in FIG. 2.
The counts of P1 and P2 subgroups of cancer cells are then used to obtain their proportions based on the total number of cell subgroups P1 through P8 that resulted from mitotic DNVs during the predetermined period of time. The proportions are typically expressed as percentages. The proportion of P1 subgroup of cells is calculated as (number of P1 subgroups)+(total number of daughter cell subgroups)×100%, and the proportion of (P1 and P2) subgroup is calculated as (number of P1 subgroups+number of P2 subgroups)+(total number of daughter cell subgroups)×100%. This can also be expressed as (number of P1 subgroups)+(total number of P1 through P8 subgroups)×100%, or (number of P1 subgroups+number of P2 subgroups)+(total number of P1 through P8 subgroups)×100%, respectively.
To investigate DNVs, the human HepG2 hepatocellular carcinoma, HeLa cervical adenocarcinoma, and A549 lung adenocarcinoma cell lines, as well as the non-cancerous RPE1 line of hTRET-immortalized retina epithelial cells, were obtained from the American Type Culture Collection (ATCC, Manassas, Va., USA) and cultivated in Dulbecco's Modified Eagle Medium (DMEM) supplemented with 10% fetal bovine serum (Gemini Bio-Products, Sacramento. Calif.) under a humidified atmosphere of 5% C02 at 37° C. […]

Compound: O=c1[nH]cc(F)c(=O)[nH]1 [5-FU, 5-flurouracil]
- Bi-daughter divisions, % of total divisions ([1]; 24 hours): 99.0%
- Bi-daughter divisions, number ([1]; 24 hours): 3264
- Sum of Multi daughter Divisions, % of total mitotic divisions ([1]; 24 hours): 0.97%
- Sum of Multi daughter Divisions, number ([1]; 24 hours): 32
- Tetra-daughter divisions, % of total divisions ([1]; 24 hours): 0.09%
- Tetra-daughter divisions, number ([1]; 24 hours): 3
- Total number of observed divisions ([1]; 24 hours): 3296 (100)
- Tri-daughter divisions, % of total divisions ([1]; 24 hours): 0.88%
- Tri-daughter divisions, number ([1]; 24 hours): 29
- ≥Tetra-daughter divisions, number ([1]; 24 hours): 0
- Bi-daughter divisions, % of total divisions ([1]; 5 days): 91.8%
- Bi-daughter divisions, number ([1]; 5 days): 143
- Sum of Multi-daughter Divisions, % of total mitotic divisions ([1]; 5 days): 8.3%
- Sum of Multi-daughter Divisions, number ([1]; 5 days): 13
- Tetra-daughter divisions, number ([1]; 5 days): 0
- Total Divisions ([1]; 5 days): 156 (100)
- Tri-daughter divisions, % of total divisions ([1]; 5 days): 8.3%
- Tri-daughter divisions, number ([1]; 5 days): 13
- ≥Tetra-daughter divisions, number ([1]; 5 days): 0
- Bi-daughter divisions, % of total divisions [2]: 100%
- Bi-daughter divisions, number [2]: 15
- Sum of Multi-daughter Divisions, number [2]: 0
- Total number of observed divisions [2]: 15
- Tri-daughter divisions, number [2]: 0
- Mitoses with DNV, number [3]: 13
- P1 + P2 subgroups, number [3]: 12
- P1 subgroups, number [3]: 10
- P2 subgroups, % of all P1 through P8 subgroups [3]: (15.3) %
- P2 subgroups, number [3]: 2
- P3 subgroups, % of all P1 through P8 subgroups [3]: (7.6) %
- P3 subgroups, number [3]: 1
- P4 subgroups, number [3]: 0
- P5 subgroups, number [3]: 0
- P6 subgroups, number [3]: 0
- P7 subgroups, number [3]: 0
- P8 subgroups, number [3]: 0

Compound: COc1c(O)cc(O)c2c(=O)cc(-c3ccccc3)oc12 [Wogonin, wogonin]
- Bi-daughter divisions, % of total divisions ([1]; 24 hours): 98.3%
- Bi-daughter divisions, number ([1]; 24 hours): 3041
- Sum of Multi daughter Divisions, % of total mitotic divisions ([1]; 24 hours): 1.70%
- Sum of Multi daughter Divisions, number ([1]; 24 hours): 53
- Tetra-daughter divisions, % of total divisions ([1]; 24 hours): 0.19%
- Tetra-daughter divisions, number ([1]; 24 hours): 6
- Total number of observed divisions ([1]; 24 hours): 3094 (100)
- Tri-daughter divisions, % of total divisions ([1]; 24 hours): 1.54%
- Tri-daughter divisions, number ([1]; 24 hours): 47
- ≥Tetra-daughter divisions, number ([1]; 24 hours): 0
- Bi-daughter divisions, % of total divisions ([1]; 5 days): 84%
- Bi-daughter divisions, number ([1]; 5 days): 205
- Sum of Multi-daughter Divisions, % of total mitotic divisions ([1]; 5 days): 16.3%
- Sum of Multi-daughter Divisions, number ([1]; 5 days): 40
- Tetra-daughter divisions, % of total divisions ([1]; 5 days): 2.4%
- Tetra-daughter divisions, number ([1]; 5 days): 6
- Total Divisions ([1]; 5 days): 245 (100)
- Tri-daughter divisions, % of total divisions ([1]; 5 days): 13.0%
- Tri-daughter divisions, number ([1]; 5 days): 32
- ≥Tetra-daughter divisions, % of total divisions ([1]; 5 days): 0.8%
- ≥Tetra-daughter divisions, number ([1]; 5 days): 2
- Bi-daughter divisions, % of total divisions [2]: 100%
- Bi-daughter divisions, number [2]: 106
- Sum of Multi-daughter Divisions, number [2]: 0
- Total number of observed divisions [2]: 106
- Tri-daughter divisions, number [2]: 0
- Mitoses with DNV, number [3]: 31
- P1 + P2 subgroups, % of all P1 through P8 subgroups [3]: (61.2) %
- P1 + P2 subgroups, number [3]: 19
- P1 subgroups, % of all P1 through P8 subgroups [3]: (51.6) %
- P1 subgroups, number [3]: 16
- P2 subgroups, % of all P1 through P8 subgroups [3]: (9.6) %
- P2 subgroups, number [3]: 3
- P3 subgroups, % of all P1 through P8 subgroups [3]: (32.2) %
- P3 subgroups, number [3]: 10
- P4 subgroups, % of all P1 through P8 subgroups [3]: (6.4) %
- P4 subgroups, number [3]: 2
- P5 subgroups, number [3]: 0
- P6 subgroups, number [3]: 0
- P7 subgroups, number [3]: 0
- P8 subgroups, number [3]: 0
- P1 + P2 subgroups, % of all P1 through P8 subgroups ([3]; listed as wogonin): 61.2%
- P1 subgroups, % of all P1 through P8 subgroups ([3]; listed as wogonin): 51.6%

— US11952593B2, “Detection and treatment of daughter number variations in cancer cells” (PharmacoGenetics Limited, priority 2020, dated 2024)
